Experimental data taken from a melting point compilation (Tetko et al.; mined from patent text by program, amines drawn as free bases though some values may be those of a salt).

| melting point | Structure (SMILES) |
| --- | --- |
| 156 °C | O=C(c1ccccc1)N(CCN1CCC(Nc2nc3ccccc3n2Cc2ccc(F)cc2)CC1)c1nccs1 |
| 104 to 106 °C | CCOC(=O)c1c(-c2ccc(OC)c(OC)c2)c2cc(Cl)ccc2n(C)c1=O |
| 206 to 208 °C | NC(=O)c1nnn(Cc2ccccc2Cl)c1N |
| 96 to 96.5 °C | O=Cc1cc2ccsc2c2ccccc12 |
| 76 to 77 °C | CCOCc1cc2cc(Cl)ccc2oc1=Nc1ccc(C)cc1 |
| 93.6 °C | O=C1CC(c2cccc(Cl)c2)c2cc(C(c3ccc(Cl)cc3)n3ccnc3)cc3c2N1CCC3 (stereo not drawn) |
| 88 to 91 °C | COc1ccc(C2CN(Cc3ccccc3)Cc3c2ccc(OC)c3Cl)cc1OC (stereo not drawn) |
| 168 to 170 °C | Cc1cnc2c(NC(=O)c3c(Cl)cccc3Cl)cccc2c1Oc1ccccc1 |
| 111 °C | CC(C)(C)[N+]([O-])=Cc1ccccc1OCc1ccccc1 |
| 259 to 260 °C | Cc1sc(C(=O)O)cc1NC(=O)NCc1ccccc1 |
| 126 to 129 °C | Cc1cccc(-c2[nH]c(CC(C)C)nc2-c2cccc(-c3ccc(C(=O)NC4CCOCC4)cc3)c2)n1 |
| 213 °C | C#CCOC(=O)N1c2ccccc2C(=O)Nc2cccnc21 |
| 256 °C | O=C(CSc1ccccc1)c1ccc2[nH]c3nc(Cl)ccc3c2c1 |
| 97 to 99 °C | C[C@@H]1[C@@H](C(=O)Cc2ccccc2)C(=O)N1OCc1ccccc1 |
| 236 to 238 °C | CCOC(=O)Nc1nc(-c2ccccc2)c(-c2nc3ccccc3c(=O)n2-c2ccccc2Cl)s1 |
| 184 °C | Cn1c(OC2CCOC2)nn(C(=O)NS(=O)(=O)c2ccccc2OC(F)(F)F)c1=O (stereo not drawn) |
| 200 °C | CC(C)c1cc(O)cc2nc(-c3ccc(O)cc3)oc12 |
| 155 °C | CN1C(=O)CCC2(C)c3ccc(-c4ccccc4)cc3CCC12 (single isomer, unassigned; (+)) |
| 131 °C | CNC(=S)C1(c2cccnc2)CCCCS1 (stereo not drawn) |

| melting point | Structure (SMILES) |
| --- | --- |
| 103 to 105 °C | CC(=O)SCC(CC1CN(Cc2ccccc2)CCO1)C(=O)Nc1cccc(C(=O)O)c1 (stereo not drawn) |
| 110 to 112 °C | O=C1CC2CCCCC2=NN1c1ccc(Cl)cc1F (stereo not drawn) |
| 189 to 191 °C | CC1(C)CC(c2ccc3ccccc3c2)c2ccc(O)cc2O1 (stereo not drawn) |
| 54 °C | O=C1OC(=O)c2cc(C(F)(F)F)ccc21 |
| 230 to 231 °C | CCOC(=O)c1c(O)c2cnc(-c3ccccc3)nc2n(Cc2ccccc2)c1=O |
| 78 to 80 °C | CCN(C(=O)N1CCN(c2cc(OC)cc(OC)c2)CC1)c1nc(C)c(C)nc1OC |
| 123 to 125 °C | COC(C)(C)C(=O)Nc1ccc(Sc2nc(C)cc(C)n2)cc1 |
| 53 to 55 °C | CCCCC(C(=O)N[C@@H](CC(=O)O)c1ccc2c(c1)OCO2)N1C(=O)N(Cc2ccccc2)C(=O)C1(C)C (stereo partly drawn) |
| 93 to 95 °C | CCn1c(=N)c(-c2cc(OC)cc(OC)c2)cc2cnc(SC)nc21 |
| 153 °C | CN(C)C=C(C(=O)C(=O)c1ccccc1C(=O)O)c1ccccc1 |
| 80 to 83 °C | CCOC(=O)C(=O)C(NC(=O)c1ccccc1)c1ccccc1 (stereo not drawn) |
| 109 to 110 °C | CC(C)(CSc1ccc(Cl)cc1)C(O)Cn1ccnc1 (stereo not drawn) |
| 259 to 260 °C | CCNC(=O)c1[nH]c2ccc(Cl)cc2c1S(=O)(=O)c1ccccc1 |
| 141 to 143 °C | CN(C)CC1CCc2cc(NC(=O)c3ccc(Br)cc3)ccc2C1 (stereo not drawn) |
| 138 to 145 °C | O=S1(=O)CCc2nn(-c3ccc(Cl)cc3)c(Br)c2C1 |
| 123 to 124 °C | c1csc(-c2coc(COc3ccc(CCCn4ccnc4)cc3)n2)c1 |
| 131 to 133 °C | COc1cc(I)c(C(=O)OC(C)COC(=O)c2ccc3c(c2I)OCO3)cc1OC (stereo not drawn) |
| 114 to 115 °C | CCc1cc(C(C)=O)ccc1N=C1SCC2(CCCC2)N1C1CCCC1 |

| Structure (SMILES) | melting point |
| --- | --- |
| CN1C(=O)[C@H](NC(=O)/C=C/c2cccc(Cl)c2)N=C(c2ccccc2)c2ccccc21 | 229 to 231 °C |
